Laboratory results: ChEMBL document CHEMBL3046723, “Ionic liquids with herbicidal anions” (Tetrahedron, 2011)
Activity calls are given as the source filed them. No cut-off for these calls is given here.

How the values were obtained:
Thlaspi arvense [1] = experiment: Herbicidal activity against Thlaspi arvense in winter wheat crop field at 600 g/ha applied at the end of tillering stage of crop measured at 4 weeks post-drug dosage; type: functional
Triticum aestivum [2] = experiment: Increase in winter Triticum aestivum (wheat) crop yield at 600 g/ha applied at the end of tillering stage of crop measured at 4 weeks post-drug dosage (reference value: 7.40 t/ha); type: functional
Consolida regalis [3] = experiment: Herbicidal activity against Consolida regalis in winter wheat crop field at 600 g/ha applied at the end of tillering stage of crop measured at 4 weeks post-drug dosage; type: functional
Triticum aestivum [4] = experiment: Increase in winter Triticum aestivum (wheat) crop yield assessed as weight of 1000 grains at 600 g/ha applied at the end of tillering stage of crop measured at 4 weeks post-drug dosage (reference value: 37.79 g); type: functional
Triticum aestivum [5] = experiment: Increase in winter Triticum aestivum (wheat) crop yield assessed as gluten content at 600 g/ha applied at the end of tillering stage of crop measured at 4 weeks post-drug dosage (reference value: 25.95%); type: functional
Brassica napus [6] = experiment: Herbicidal activity against Brassica napus (oilseed rape) in winter wheat crop field at 600 g/ha applied at the end of tillering stage of crop measured at 4 weeks post-drug dosage; type: functional
[7] = Acute toxicity in po dosed Rattus norvegicus Wistar (rat); type: organism-based; settings: in vivo
Triticum aestivum [8] = experiment: Increase in winter Triticum aestivum (wheat) crop yield assessed as protein content at 600 g/ha applied at the end of tillering stage of crop measured at 4 weeks post-drug dosage (reference value: 11.12%); type: functional
Matricaria [9] = experiment: Herbicidal activity against Matricaria inodora in winter wheat crop field at 600 g/ha applied at the end of tillering stage of crop measured at 4 weeks post-drug dosage; type: functional
Myosotis arvensis = experiment: Herbicidal activity against Myosotis arvensis measured at 4 weeks post-drug dosage; type: functional, organism-based
Centaurea cyanus = experiment: Herbicidal activity against Centaurea cyanus measured at 4 weeks post-drug dosage; type: functional, organism-based
Brassica napus [10] = experiment: Herbicidal activity against Brassica napus (oilseed rape) measured at 4 weeks post-drug dosage; type: functional, organism-based
Thlaspi arvense [11] = experiment: Herbicidal activity against Thlaspi arvense measured at 4 weeks post-drug dosage; type: functional, organism-based
Euphorbia helioscopia = experiment: Herbicidal activity against Euphorbia helioscopia measured at 4 weeks post-drug dosage; type: functional, organism-based
Viola arvensis = experiment: Herbicidal activity against Viola arvensis measured at 4 weeks post-drug dosage; type: functional, organism-based
Triticum aestivum [12] = experiment: Reduction in Triticum aestivum (wheat) stem length applied at the end of tillering stage of crop measured at 4 weeks post-drug dosage; type: functional, organism-based
Chenopodium album = experiment: Herbicidal activity against Chenopodium album measured at 4 weeks post-drug dosage; type: functional, organism-based
Triticum aestivum [13] = experiment: Increase in winter Triticum aestivum (wheat) crop yield assessed as weight of 1000 grains at 900 g/ha applied at the end of tillering stage of crop measured at 4 weeks post-drug dosage (reference value: 37.79 g); type: functional
Matricaria [14] = experiment: Herbicidal activity against Matricaria inodora in winter wheat crop field at 900 g/ha applied at the end of tillering stage of crop measured at 4 weeks post-drug dosage; type: functional
Brassica napus [15] = experiment: Herbicidal activity against Brassica napus (oilseed rape) in winter wheat crop field at 900 g/ha applied at the end of tillering stage of crop measured at 4 weeks post-drug dosage; type: functional
Consolida regalis [16] = experiment: Herbicidal activity against Consolida regalis in winter wheat crop field at 900 g/ha applied at the end of tillering stage of crop measured at 4 weeks post-drug dosage; type: functional
Triticum aestivum [17] = experiment: Increase in winter Triticum aestivum (wheat) crop yield assessed as gluten content at 900 g/ha applied at the end of tillering stage of crop measured at 4 weeks post-drug dosage (reference value: 25.95%); type: functional
Thlaspi arvense [18] = experiment: Herbicidal activity against Thlaspi arvense in winter wheat crop field at 900 g/ha applied at the end of tillering stage of crop measured at 4 weeks post-drug dosage; type: functional
Triticum aestivum [19] = experiment: Increase in winter Triticum aestivum (wheat) crop yield at 900 g/ha applied at the end of tillering stage of crop measured at 4 weeks post-drug dosage (reference value: 7.40 t/ha); type: functional
Triticum aestivum [20] = experiment: Increase in winter Triticum aestivum (wheat) crop yield assessed as protein content at 900 g/ha applied at the end of tillering stage of crop measured at 4 weeks post-drug dosage (reference value: 11.12%); type: functional

For CCCCC(CC)OC(=O)COc1ccc(Cl)cc1C (centres undefined), the Activity (Thlaspi arvense [1]) was 100%, the Crop_yield (Triticum aestivum [2]) was 7.8 tons/ha and the Activity (Consolida regalis [3]) was 95%. For the same molecule, the Activity (Triticum aestivum [4]) was 39.78 g, the Activity (Triticum aestivum [5]) was 27.12% and the Activity (Brassica napus [6]) was 100%. For the same molecule, the LD50 [7] was 1300 mg/kg, the Activity (Triticum aestivum [8]) was 11.03% and the Activity (Matricaria [9]) was 62%.
With CCCCCCCCCC[N+](C)(C)CCCCCCCCCC.Cc1cc(Cl)ccc1OCC(=O)[O-] the LD50 [7] was 300 mg/kg.
In the case of C[N+](C)(C)CCl.Cc1cc(Cl)ccc1OCC(=O)[O-] [listing 1 of 2 here], the Activity (Myosotis arvensis) is reported as “Active”, the Activity (Centaurea cyanus) is reported as “Active” and the Activity (Brassica napus [10]) is reported as “Active”. For the same molecule, the Activity (Thlaspi arvense [11]) was “Active”, the Activity (Euphorbia helioscopia) was “Active” and the Activity (Viola arvensis) was “Active”. For the same molecule, the inhibition (Triticum aestivum [12]) was “Active” and the Activity (Chenopodium album) was “Active”.
Molecule C[N+](C)(C)CCl.Cc1cc(Cl)ccc1OCC(=O)[O-] [listing 2 of 2 here] has an LD50 [7] of 300 mg/kg.
Cc1cc(Cl)ccc1OCC(=O)O [METAXON] showed an LD50 [7] of 962 mg/kg.
With C[N+](C)(C)CCCl.[Cl-] [CHLORMEQUAT CHLORIDE] the LD50 [7] was 1300 mg/kg.
Cc1cc(Cl)ccc1OCC(=O)[O-].[Na+] showed an Activity (Triticum aestivum [13]) of 39.3 g, an Activity (Matricaria [14]) of 56% and an Activity (Brassica napus [15]) of 100%. The Activity (Consolida regalis [16]) was 96%, the Activity (Triticum aestivum [17]) was 27.33% and the Activity (Thlaspi arvense [18]) was 100%. For the same molecule, the Crop_yield (Triticum aestivum [19]) was 7.81 tons/ha and the Activity (Triticum aestivum [20]) was 11.08%.
